# What was measured:
# [1] = test system: patients with relapsed multiple myeloma; experiment: Randomized, double-blind, placebo-controlled, multicenter study (PANORAMA-1) of panobinostat plus bortezomib and dexamethasone; type: in vivo
# Procedure: Treatment was administered for a maximum of 16 cycles (48 weeks).
# Demographics and baseline disease characteristics were balanced between arms. The median age was 63 years (range 28 to 84); 42% of patients were older than 65 years; 53% of patients were male. The ECOG (Eastern Cooperative Oncology Group) performance status was 0 to 1 in 93% of patients. The median number of prior therapies was 1; 48% of patients received 2 or 3 prior lines of therapy. More than half (57%) of the patients had prior stem cell transplantation. The most common prior antineoplastic therapies were corticosteroids (90%), melphalan (80%), thalidomide (53%), cyclophosphamide (47%), bortezomib (44%), and lenalidomide (19%). The median duration of follow-up was 29 months in both arms.
# The primary endpoint was progression-free survival (PFS), using modified European Bone Marrow Transplant Group (EBMT) criteria, as assessed by the investigators. […] The efficacy and safety in a subgroup analysis of 193 patients who had received prior treatment with both bortezomib and an immunomodulatory agent and a median of 2 prior therapies as the benefit: risk appeared to be greater in this more heavily pretreated population than in the overall trial population. Of these 193 patients, 76% of them had received ≥2 prior lines of therapy.
# [2] = test system: cardiac ventricular repolarization (QT interval); experiment: Pooled clinical data from over 500 patients treated with single agent panobinostat: QTc prolongation; type: in vivo, human
# Source text: Panobinostat may prolong cardiac ventricular repolarization (QT interval).
smiles,measurement,setting,value
Cc1[nH]c2ccccc2c1CCNCc1ccc(/C=C/C(=O)NO)cc1 [panobinostat],serious toxicities observed,"[1]; PANORAMA clinical study, patients receiving panobinostat","severe and fatal ischemic events, severe arrhythmias and ECG changes"
same,gastrointestinal toxicity,[1]; in vivo,common
same,incidence of CTC Grade 3 QTc prolongation (QTcF >500 msec),[2]; at a dose of 60 mg or higher,≥ 5%
same,incidence of CTC Grade 3 QTc prolongation (QTcF >500 msec),"[2]; multiple indications, different dose levels, overall",approximately 1%

# Reference: patent US20200093795A1 (Secura Bio, Inc., priority 2015, published 2020)
